Results taken from ChEMBL document CHEMBL1135193, “N-[2-(Indan-1-yl)-3-mercapto-propionyl] amino acids as highly potent inhibitors of the three vasopeptidases (NEP, ACE, ECE): In vitro and In vivo activities” (Bioorg Med Chem Lett, 2002).

What follows are molecules tested against T1, Angiotensin-converting enzyme (Rattus norvegicus, UniProt P47820) (assay: In vitro inhibition of Angiotensin I converting enzyme.).
T1 sequence (P47820 whole entry): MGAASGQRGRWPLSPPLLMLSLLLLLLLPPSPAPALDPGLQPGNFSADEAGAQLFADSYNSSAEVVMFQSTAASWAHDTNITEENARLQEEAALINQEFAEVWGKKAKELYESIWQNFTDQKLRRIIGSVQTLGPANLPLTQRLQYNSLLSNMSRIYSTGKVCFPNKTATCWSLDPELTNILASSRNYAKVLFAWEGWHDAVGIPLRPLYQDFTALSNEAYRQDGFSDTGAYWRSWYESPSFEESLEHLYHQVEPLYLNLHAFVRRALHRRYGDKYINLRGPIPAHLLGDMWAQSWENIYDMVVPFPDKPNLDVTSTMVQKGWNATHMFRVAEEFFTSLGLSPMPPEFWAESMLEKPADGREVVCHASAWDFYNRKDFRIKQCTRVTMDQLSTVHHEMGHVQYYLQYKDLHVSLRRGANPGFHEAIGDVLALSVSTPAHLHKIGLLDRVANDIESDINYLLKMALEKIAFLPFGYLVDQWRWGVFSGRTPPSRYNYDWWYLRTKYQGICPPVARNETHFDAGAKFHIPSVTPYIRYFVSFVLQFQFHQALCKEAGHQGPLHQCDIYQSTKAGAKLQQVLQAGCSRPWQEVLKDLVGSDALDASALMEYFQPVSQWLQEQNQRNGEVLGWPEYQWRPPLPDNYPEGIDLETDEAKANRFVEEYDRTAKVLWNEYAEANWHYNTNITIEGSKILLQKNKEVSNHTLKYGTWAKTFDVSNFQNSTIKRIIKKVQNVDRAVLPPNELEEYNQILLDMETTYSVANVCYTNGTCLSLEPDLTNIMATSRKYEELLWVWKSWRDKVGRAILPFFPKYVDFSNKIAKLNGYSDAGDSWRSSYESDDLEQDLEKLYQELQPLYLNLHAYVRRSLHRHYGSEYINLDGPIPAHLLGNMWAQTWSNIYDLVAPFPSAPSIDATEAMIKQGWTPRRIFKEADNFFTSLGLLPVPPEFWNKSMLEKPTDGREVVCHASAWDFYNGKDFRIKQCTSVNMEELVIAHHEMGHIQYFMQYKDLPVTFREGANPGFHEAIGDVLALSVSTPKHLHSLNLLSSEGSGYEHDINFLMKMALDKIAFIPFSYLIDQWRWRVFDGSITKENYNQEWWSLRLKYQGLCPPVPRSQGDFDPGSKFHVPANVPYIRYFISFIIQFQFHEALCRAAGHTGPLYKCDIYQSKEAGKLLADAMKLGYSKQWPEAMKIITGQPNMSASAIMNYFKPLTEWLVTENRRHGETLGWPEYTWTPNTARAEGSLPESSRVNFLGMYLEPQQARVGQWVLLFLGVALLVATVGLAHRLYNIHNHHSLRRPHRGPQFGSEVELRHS
Work on `CN(C)c1ccc2c(c1)CCC2C(CS)C(=O)NC(Cc1c[nH]c2ccccc12)C(=O)O` (stereo unspecified) yielded a Ki of 44 nM. For `CCOc1ccc2c(c1)CCC2C(CS)C(=O)NC(Cc1c[nH]c2ccccc12)C(=O)O` (stereo unspecified), the Ki was 18 nM. `O=C(O)C(Cc1c[nH]c2ccccc12)NC(=O)C(CS)C1CCc2cc(-c3ccccc3)ccc21` (stereo unspecified) gave a Ki of 27 nM. `COc1ccc2c(c1)CC[C@H]2[C@@H](CS)C(=O)N[C@@H](Cc1c[nH]c2ccccc12)C(=O)O` gave a Ki of 30 nM. With `COc1ccc2c(c1)C(C(CS)C(=O)NC(Cc1c[nH]c3ccccc13)C(=O)O)CC2` (stereo unspecified) the Ki was 35 nM. Work on `COc1cc2c(cc1OC)C(C(CS)C(=O)NC(Cc1c[nH]c3ccccc13)C(=O)O)CC2` (stereo unspecified) yielded a Ki of 78 nM. With `O=C(O)[C@H](Cc1c[nH]c2ccccc12)NC(=O)[C@@H](CS)[C@@H]1CCc2cc(Br)ccc21` the Ki was 58 nM. `COc1ccc2c(c1)CCC2C(CS)C(=O)NC(Cc1c[nH]c2ccccc12)C(=O)O` (stereo unspecified) was tested, and the Ki was 11 nM. Work on `O=C(O)[C@H](Cc1c[nH]c2ccccc12)NC(=O)[C@@H](CS)[C@H]1CCc2cc(Br)ccc21` yielded a Ki of 4.1 nM.

Each molecule was assayed against T2, Neprilysin (Oryctolagus cuniculus, UniProt P08049) (assay: In vitro inhibition of Neutral endopeptidase.).
T2 sequence (P08049 whole entry): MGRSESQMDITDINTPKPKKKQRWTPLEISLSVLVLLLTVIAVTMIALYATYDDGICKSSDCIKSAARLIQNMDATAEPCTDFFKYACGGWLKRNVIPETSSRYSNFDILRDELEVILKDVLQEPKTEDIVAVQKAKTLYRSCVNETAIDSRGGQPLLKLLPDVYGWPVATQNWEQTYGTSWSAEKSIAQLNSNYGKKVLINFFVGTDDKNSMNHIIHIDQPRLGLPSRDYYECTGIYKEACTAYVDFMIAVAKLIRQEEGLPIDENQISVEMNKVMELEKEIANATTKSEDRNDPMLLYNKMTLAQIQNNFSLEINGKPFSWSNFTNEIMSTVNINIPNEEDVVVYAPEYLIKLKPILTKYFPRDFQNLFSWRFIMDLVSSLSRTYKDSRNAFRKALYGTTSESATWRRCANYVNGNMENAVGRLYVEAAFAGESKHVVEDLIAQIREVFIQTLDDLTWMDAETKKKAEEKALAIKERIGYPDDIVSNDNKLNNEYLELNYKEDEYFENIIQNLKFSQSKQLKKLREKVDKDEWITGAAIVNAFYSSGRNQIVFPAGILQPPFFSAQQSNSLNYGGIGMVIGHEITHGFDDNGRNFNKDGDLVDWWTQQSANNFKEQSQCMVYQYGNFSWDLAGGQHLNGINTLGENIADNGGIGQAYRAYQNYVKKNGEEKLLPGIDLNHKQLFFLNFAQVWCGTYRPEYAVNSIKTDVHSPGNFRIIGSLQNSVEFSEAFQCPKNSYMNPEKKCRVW
For `CN(C)c1ccc2c(c1)CCC2C(CS)C(=O)NC(Cc1c[nH]c2ccccc12)C(=O)O` (stereo unspecified), the Ki was 15 nM. Work on `CCOc1ccc2c(c1)CCC2C(CS)C(=O)NC(Cc1c[nH]c2ccccc12)C(=O)O` (stereo unspecified) yielded a Ki of 8 nM. Molecule `O=C(O)C(Cc1c[nH]c2ccccc12)NC(=O)C(CS)C1CCc2cc(-c3ccccc3)ccc21` (stereo unspecified) has a Ki of 14 nM. With `COc1ccc2c(c1)CC[C@H]2[C@@H](CS)C(=O)N[C@@H](Cc1c[nH]c2ccccc12)C(=O)O` the Ki was 15 nM. For `COc1ccc2c(c1)C(C(CS)C(=O)NC(Cc1c[nH]c3ccccc13)C(=O)O)CC2` (stereo unspecified), the Ki was 11 nM. Work on `COc1cc2c(cc1OC)C(C(CS)C(=O)NC(Cc1c[nH]c3ccccc13)C(=O)O)CC2` (stereo unspecified) yielded a Ki of 78 nM. For `O=C(O)[C@H](Cc1c[nH]c2ccccc12)NC(=O)[C@@H](CS)[C@@H]1CCc2cc(Br)ccc21`, the Ki was 9.4 nM. `COc1ccc2c(c1)CCC2C(CS)C(=O)NC(Cc1c[nH]c2ccccc12)C(=O)O` (stereo unspecified) showed a Ki of 5 nM. Work on `O=C(O)[C@H](Cc1c[nH]c2ccccc12)NC(=O)[C@@H](CS)[C@H]1CCc2cc(Br)ccc21` yielded a Ki of 3.8 nM.

The molecules below were run against T3, Endothelin-converting enzyme 1 (Homo sapiens, UniProt P42892) (assay: In vitro inhibition of endothelin converting enzyme.).
T3 sequence (P42892 whole entry): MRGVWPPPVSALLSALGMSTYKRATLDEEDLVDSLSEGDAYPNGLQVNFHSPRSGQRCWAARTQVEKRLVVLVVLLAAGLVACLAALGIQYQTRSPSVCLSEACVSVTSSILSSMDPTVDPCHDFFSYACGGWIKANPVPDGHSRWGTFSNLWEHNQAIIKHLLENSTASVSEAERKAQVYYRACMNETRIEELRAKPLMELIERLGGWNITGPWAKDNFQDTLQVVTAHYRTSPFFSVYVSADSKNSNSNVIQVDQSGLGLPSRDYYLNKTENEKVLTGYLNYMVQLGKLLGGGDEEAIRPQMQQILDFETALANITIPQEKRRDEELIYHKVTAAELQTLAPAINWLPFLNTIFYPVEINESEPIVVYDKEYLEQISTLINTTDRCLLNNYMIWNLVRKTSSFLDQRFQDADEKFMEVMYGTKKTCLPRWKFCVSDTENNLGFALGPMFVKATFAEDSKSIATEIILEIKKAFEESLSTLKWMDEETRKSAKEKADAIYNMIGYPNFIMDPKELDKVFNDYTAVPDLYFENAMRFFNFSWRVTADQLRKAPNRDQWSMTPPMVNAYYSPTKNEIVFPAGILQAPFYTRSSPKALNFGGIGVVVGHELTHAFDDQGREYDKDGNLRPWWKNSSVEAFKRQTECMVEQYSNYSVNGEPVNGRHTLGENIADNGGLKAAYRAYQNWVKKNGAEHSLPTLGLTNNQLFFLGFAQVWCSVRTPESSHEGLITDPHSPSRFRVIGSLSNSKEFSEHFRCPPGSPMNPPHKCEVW
For `CN(C)c1ccc2c(c1)CCC2C(CS)C(=O)NC(Cc1c[nH]c2ccccc12)C(=O)O` (stereo unspecified), the Ki was 370 nM. In the case of `CCOc1ccc2c(c1)CCC2C(CS)C(=O)NC(Cc1c[nH]c2ccccc12)C(=O)O` (stereo unspecified), the Ki is reported as 47 nM. For `O=C(O)C(Cc1c[nH]c2ccccc12)NC(=O)C(CS)C1CCc2cc(-c3ccccc3)ccc21` (stereo unspecified), the Ki was 140 nM. `COc1ccc2c(c1)CC[C@H]2[C@@H](CS)C(=O)N[C@@H](Cc1c[nH]c2ccccc12)C(=O)O` was tested, and the Ki was 180 nM. For `COc1ccc2c(c1)C(C(CS)C(=O)NC(Cc1c[nH]c3ccccc13)C(=O)O)CC2` (stereo unspecified), the Ki was 79 nM. Work on `COc1cc2c(cc1OC)C(C(CS)C(=O)NC(Cc1c[nH]c3ccccc13)C(=O)O)CC2` (stereo unspecified) yielded a Ki of 560 nM. With `O=C(O)[C@H](Cc1c[nH]c2ccccc12)NC(=O)[C@@H](CS)[C@@H]1CCc2cc(Br)ccc21` the Ki was 110 nM. `COc1ccc2c(c1)CCC2C(CS)C(=O)NC(Cc1c[nH]c2ccccc12)C(=O)O` (stereo unspecified) gave a Ki of 22 nM. For `O=C(O)[C@H](Cc1c[nH]c2ccccc12)NC(=O)[C@@H](CS)[C@H]1CCc2cc(Br)ccc21`, the Ki was 28 nM.

The molecules below were run on Rattus norvegicus (assay: Increase in MAP on intravenous injection of AI in vehicle at 1 nmol/kg iv in male wistar rats).
Assay type: functional
In the case of `O=C(O)[C@H](Cc1c[nH]c2ccccc12)NC(=O)[C@@H](CS)[C@H]1CCc2cc(Br)ccc21`, the MAP is reported as 15 mmHg.

Each molecule was assayed against T4, Neprilysin (Mus musculus) (UniProt Q61391) (assay: In vivo inhibition of lung Neutral endopeptidase in mice was determined by blockage of enzyme at 25 mg/kg iv of compound).
T4 sequence (whole entry): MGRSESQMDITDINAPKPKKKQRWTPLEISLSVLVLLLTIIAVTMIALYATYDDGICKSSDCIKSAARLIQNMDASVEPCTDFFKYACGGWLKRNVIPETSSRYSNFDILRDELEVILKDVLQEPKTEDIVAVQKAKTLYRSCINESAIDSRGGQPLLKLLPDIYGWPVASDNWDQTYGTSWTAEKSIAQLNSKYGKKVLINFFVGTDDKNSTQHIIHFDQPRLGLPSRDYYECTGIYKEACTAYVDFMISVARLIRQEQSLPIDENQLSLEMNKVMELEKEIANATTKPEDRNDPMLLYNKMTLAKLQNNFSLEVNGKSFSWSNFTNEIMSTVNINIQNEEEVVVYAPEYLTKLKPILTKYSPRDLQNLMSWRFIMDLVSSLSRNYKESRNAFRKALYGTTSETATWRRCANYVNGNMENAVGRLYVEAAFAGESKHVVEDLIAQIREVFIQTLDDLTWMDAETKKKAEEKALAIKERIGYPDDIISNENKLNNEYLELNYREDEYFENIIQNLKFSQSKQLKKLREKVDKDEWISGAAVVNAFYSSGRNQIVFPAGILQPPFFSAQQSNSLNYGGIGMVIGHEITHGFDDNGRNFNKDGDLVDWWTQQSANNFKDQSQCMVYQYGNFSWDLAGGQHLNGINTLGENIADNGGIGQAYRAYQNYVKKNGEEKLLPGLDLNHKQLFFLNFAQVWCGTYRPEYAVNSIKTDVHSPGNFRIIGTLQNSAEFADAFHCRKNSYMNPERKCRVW
Assay type: organism-based
Parameters: dose 25 mg/kg
`O=C(O)[C@H](Cc1c[nH]c2ccccc12)NC(=O)[C@@H](CS)[C@H]1CCc2cc(Br)ccc21` showed an inhibition of 70%.

What follows are molecules tested on Rattus norvegicus (assay: Increase in mean arterial pressure (MAP) in anesthetized male wistar rats on iv injection of 1 nmol/kg big ET-1).
Assay type: functional, Artery
`O=C(O)[C@H](Cc1c[nH]c2ccccc12)NC(=O)[C@@H](CS)[C@H]1CCc2cc(Br)ccc21` showed an MAP of 57.2 mmHg.

Each molecule was assayed on Rattus norvegicus (assay: Decrease of mean arterial pressure (MAP) on iv administration of sodium salt at 30 mg/kg at 5 or 15 min prior to the big ET-1 challenge in wistar rats).
Assay type: functional, Artery
With `O=C(O)[C@H](Cc1c[nH]c2ccccc12)NC(=O)[C@@H](CS)[C@H]1CCc2cc(Br)ccc21` the MAP was -15.2 mmHg.
